One data set addresses HSD17B13 (Homo sapiens (Human), UniProt Q7Z5P4). Nature of the data set: HSD17B13 enzymatic inhibition assay (150 nM or 50 nM HSD17B13). Format: biochemical. The note with it: 50 nM HSD17B13; read-out: Inhibition of 50 nM of HSD17B13 IC50.
Data set [1] is described as follows: Microsome stability assay, human liver microsomes. The note with it: 1 μM compound, 0.5 mg/mL microsomal protein; for microsomal CLint at 1 h, 1 µM / half-life at 1 h, 1 µM: human, human liver microsomes, pooled, NADPH, 37° C.; for microsomal CLint at 1 h, 1 µM: read-out: Microsome Stability Human liver microsomes Cl; for half-life at 1 h, 1 µM: read-out: Microsome Stability Human liver microsomes T½. Format: in vitro ADME. Summed up: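 Compound at 1 μM incubated at 37° C with pooled human or mouse liver microsomes (0.5 mg/mL protein) plus NADPH regenerating system, sampled at 0–60 min; a 60-min no-NADPH incubation also included. Single replicate; LC/MS/MS disappearance from analyte/internal standard peak area ratios, without standard curve.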

A short description of data set [2]: Microsome stability assay, mouse liver microsomes. Format: in vitro ADME. As to conditions: 1 μM compound, 0.5 mg/mL microsomal protein; for microsomal CLint at 1 h, 1 µM / half-life at 1 h, 1 µM: mouse, mouse liver microsomes, pooled, NADPH, 37° C.; for microsomal CLint at 1 h, 1 µM: read-out: Microsome Stability Mouse liver microsomes Cl; for half-life at 1 h, 1 µM: read-out: Microsome Stability Mouse liver microsomes T½. Here is the method:
Compounds of the disclosure were screened in microsome stability assays. For the screen, test compounds were incubated at 37° C. with either human liver microsomes (Corning; #452117) or mouse liver microsomes (XenoTech; #M1000), pooled from multiple donors, at 1 μM in the presence of a NADPH regenerating system at 0.5 mg/mL microsomal protein. Positive controls included in the assay were testosterone (3A4 substrate), propafenone (2D6) and diclofenac (2C9). Samples were removed at different time points (0, 5, 10, 20, 30 and 60 minutes) and immediately mixed with cold acetonitrile containing internal standard (IS, 200 ng/mL tolbutamide and 200 ng/mL labetalol). Test compounds incubated with microsomes for 60 minutes without the NADPH regenerating system was also included. A single point for each test condition (n=1) was obtained, and samples were analyzed by LC/MS/MS. Disappearance of the test compound was assessed based on peak area ratios of analyte/IS (no standard curve).
A general note: Microsomes from liver hold many membrane-bound enzymes, among them those of drug oxidation.

The structures appear in SMILES notation.

Chain of HSD17B13 (Q7Z5P4 other isoform, or with tags, fused parts or gaps): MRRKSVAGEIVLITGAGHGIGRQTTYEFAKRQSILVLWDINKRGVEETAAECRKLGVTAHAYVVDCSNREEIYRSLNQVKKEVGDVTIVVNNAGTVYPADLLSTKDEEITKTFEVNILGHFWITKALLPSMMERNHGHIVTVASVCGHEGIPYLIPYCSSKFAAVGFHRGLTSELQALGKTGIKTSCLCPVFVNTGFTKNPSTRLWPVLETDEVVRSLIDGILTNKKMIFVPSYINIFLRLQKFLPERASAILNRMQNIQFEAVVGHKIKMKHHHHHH

As a reminder, the IC50 is the point on the concentration scale where inhibition reaches its midpoint. Turning to `Cc1ccc2c(c1)SC(C)CC2NC(=O)c1ccc(C(F)(F)F)[nH]c1=O` (centres unmarked) [Compound 385, N-(2,7-dimethylthiochroman-4-yl)-2-oxo-6-(trifluoromethyl)-1,2-dihydropyridine-3-carboxamide], the IC50 at HSD17B13 came to 40 nM. In data set [1], the “Microsome Stability Human liver microsomes % Remaining @60 min” value turned out to be 1%; the microsomal CLint at 1 h, 1 µM stood at 643 µL/min/mg; the half-life at 1 h, 1 µM was 2.15 min. Also, in data set [2], the “Microsome Stability Mouse liver microsomes % Remaining @60 min” value is listed as 43%; the microsomal CLint at 1 h, 1 µM worked out at 27 µL/min/mg; the half-life at 1 h, 1 µM was determined as 51.3 min.

For `CCC1Cc2cc(OC)ccc2C(NC(=O)c2ccc(C(F)(F)F)[nH]c2=O)C1` (centres unmarked) [Compound 390, N-(3-ethyl-6-methoxy-1,2,3,4-tetrahydronaphthalen-1-yl)-2-oxo-6-(trifluoromethyl)-1,2-dihydropyridine-3-carboxamide], at HSD17B13, the IC50 worked out at 70 nM. In addition, in data set [1], the “Microsome Stability Human liver microsomes % Remaining @60 min” value is reported as 11%; the microsomal CLint at 1 h, 1 µM worked out at 151 µL/min/mg; the half-life at 1 h, 1 µM came to 9.15 min. In data set [2], the “Microsome Stability Mouse liver microsomes % Remaining @60 min” value worked out at 62.80%; the microsomal CLint at 1 h, 1 µM was 16.8 µL/min/mg; the half-life at 1 h, 1 µM was 82.3 min.

In the case of `Cc1ccc(C(CC2CC2)NC(=O)c2ccc(C(F)(F)F)[nH]c2=O)cc1` (centres unmarked) [Compound 401, N-(2-cyclopropyl-1-(p-tolyl)ethyl)-2-oxo-6-(trifluoromethyl)-1,2-dihydropyridine-3-carboxamide], the IC50 on HSD17B13 turned out to be 350 nM. In addition, in data set [1], the “Microsome Stability Human liver microsomes % Remaining @60 min” value worked out at 1.80%; the microsomal CLint at 1 h, 1 µM was determined as 463 µL/min/mg; the half-life at 1 h, 1 µM was 2.99 min. Besides, in data set [2], the “Microsome Stability Mouse liver microsomes % Remaining @60 min” value worked out at 4%; the microsomal CLint at 1 h, 1 µM was 182 µL/min/mg; the half-life at 1 h, 1 µM stood at 7.61 min.

For `CCC1CCc2cc(C)ccc2C1NC(=O)c1ccc(C(F)(F)F)[nH]c1=O` (centres unmarked) [Compound 543, N-(2-ethyl-6-methyl-1,2,3,4-tetrahydronaphthalen-1-yl)-2-oxo-6-(trifluoromethyl)-1,2-dihydropyridine-3-carboxamide], at HSD17B13, the IC50 stood at 50 nM. In data set [1], the “Microsome Stability Human liver microsomes % Remaining @60 min” value stood at 0.36%; the microsomal CLint at 1 h, 1 µM stood at 364 µL/min/mg; the half-life at 1 h, 1 µM was 3.81 min. Besides, in data set [2], the “Microsome Stability Mouse liver microsomes % Remaining @60 min” value turned out to be 25.30%; the microsomal CLint at 1 h, 1 µM came out at 43.6 µL/min/mg; the half-life at 1 h, 1 µM was 31.8 min.

Consider `Cc1ccc(C(CC2CCC2)NC(=O)c2ccc(C(F)(F)F)[nH]c2=O)cc1` (centres unmarked) [Compound 557, N-(2-cyclobutyl-1-(p-tolyl)ethyl)-2-oxo-6-(trifluoromethyl)-1,2-dihydropyridine-3-carboxamide], for which the IC50 on HSD17B13 is 140 nM. Also, in data set [1], the “Microsome Stability Human liver microsomes % Remaining @60 min” value is 1%; the microsomal CLint at 1 h, 1 µM came to 437 µL/min/mg; the half-life at 1 h, 1 µM was found to be 3.17 min. In data set [2], the “Microsome Stability Mouse liver microsomes % Remaining @60 min” value stood at 65%; the microsomal CLint at 1 h, 1 µM worked out at 14.4 µL/min/mg; the half-life at 1 h, 1 µM came out at 96.3 min.

The values are drawn from patent publication US11957687B2 (REGENERON PHARMACEUTICALS, INC., priority 2019, dated 2024).
